Legend:
[1] = target: T1, rat B2 receptor (Rattus norvegicus, UniProt P25023); assay: Ca^2+ mobilization assay, HEK293T cells; format: cell-based; conditions: BK at EC80 4.32 nM
T1 construct: host or cells: HEK293T cells
T1 sequence (P25023 1-396): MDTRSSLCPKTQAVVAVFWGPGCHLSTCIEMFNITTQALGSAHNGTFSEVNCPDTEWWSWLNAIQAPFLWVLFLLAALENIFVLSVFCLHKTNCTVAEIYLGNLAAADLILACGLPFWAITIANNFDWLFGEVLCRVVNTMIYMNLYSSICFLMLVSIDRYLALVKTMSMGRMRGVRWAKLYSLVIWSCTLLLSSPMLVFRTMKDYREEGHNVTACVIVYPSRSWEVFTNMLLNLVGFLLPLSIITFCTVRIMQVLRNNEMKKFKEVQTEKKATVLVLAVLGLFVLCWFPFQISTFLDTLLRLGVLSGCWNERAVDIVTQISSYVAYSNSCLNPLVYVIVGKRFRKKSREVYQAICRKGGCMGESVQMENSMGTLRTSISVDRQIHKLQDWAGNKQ

[2] = target: T2, Adenosine A2A (Homo sapiens, UniProt P29274); assay: radioligand binding (Table S2); conditions: [3H] CGS 21680, Human recombinant HEK-293 cells
T2 construct: host or cells: HEK-293 cells

[3] = target: T3, Bradykinin B1 (Homo sapiens, UniProt P46663); assay: radioligand binding (Table S2)
T3 construct: host or cells: CHO cells

[4] = target: Muscarinic M4 (Homo sapiens, UniProt P08173); assay: radioligand binding (Table S2); conditions: read-out: % Inhibition @ 10 µM
[5] = target: T4, Adenosine A3 (Homo sapiens, UniProt P0DMS8); assay: functional assay, cAMP HTRF, CHO cells (Table S2); format: cell-based; design: host or cells: CHO cells
T4 sequence (P0DMS8 1-318): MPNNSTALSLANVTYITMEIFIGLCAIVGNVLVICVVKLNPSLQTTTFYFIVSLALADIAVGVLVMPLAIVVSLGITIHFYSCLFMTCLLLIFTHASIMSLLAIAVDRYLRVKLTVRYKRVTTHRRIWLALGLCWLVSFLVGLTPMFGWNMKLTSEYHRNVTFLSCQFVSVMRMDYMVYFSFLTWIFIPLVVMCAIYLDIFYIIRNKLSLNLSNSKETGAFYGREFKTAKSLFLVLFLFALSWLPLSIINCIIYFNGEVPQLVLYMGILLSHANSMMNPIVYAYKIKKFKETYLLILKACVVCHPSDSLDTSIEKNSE

[6] = target: T5, Neurokinin NK2 (Homo sapiens, UniProt P21452); assay: radioligand binding (Table S2); conditions: [125I] NKA, Human recombinant CHO cells
T5 construct: host or cells: CHO cells
T5 sequence (P21452 1-398): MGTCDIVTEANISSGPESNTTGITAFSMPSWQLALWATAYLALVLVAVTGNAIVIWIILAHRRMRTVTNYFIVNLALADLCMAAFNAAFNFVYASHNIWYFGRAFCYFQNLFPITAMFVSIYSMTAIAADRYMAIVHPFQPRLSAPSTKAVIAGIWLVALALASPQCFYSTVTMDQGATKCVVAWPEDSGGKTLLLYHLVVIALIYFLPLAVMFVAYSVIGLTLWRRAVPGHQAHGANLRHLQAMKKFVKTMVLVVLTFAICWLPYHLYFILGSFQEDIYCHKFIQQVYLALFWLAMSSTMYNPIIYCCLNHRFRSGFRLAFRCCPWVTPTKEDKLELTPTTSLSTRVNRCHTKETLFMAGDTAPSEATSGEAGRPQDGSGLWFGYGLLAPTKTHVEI

[7] = target: T6, Serotonin 5-HT7 (Homo sapiens, UniProt P34969); assay: radioligand binding (Table S2); conditions: [3H] LSD, Human recombinant CHO cells
T6 construct: host or cells: CHO cells

[8] = target: T7, Leukotriene B4 receptor BLT1 (Homo sapiens, UniProt Q15722); assay: radioligand binding (Table S2); conditions: [3H] LTB4, Human recombinant CHO cells
T7 construct: host or cells: CHO cells

[9] = target: T8, mouse B2 receptor (Mus musculus, UniProt P32299); assay: Ca^2+ mobilization assay, HEK293T cells; format: cell-based; conditions: BK at EC80 0.53 nM, n=1
T8 construct: host or cells: HEK293T cells
T8 sequence (P32299 1-392): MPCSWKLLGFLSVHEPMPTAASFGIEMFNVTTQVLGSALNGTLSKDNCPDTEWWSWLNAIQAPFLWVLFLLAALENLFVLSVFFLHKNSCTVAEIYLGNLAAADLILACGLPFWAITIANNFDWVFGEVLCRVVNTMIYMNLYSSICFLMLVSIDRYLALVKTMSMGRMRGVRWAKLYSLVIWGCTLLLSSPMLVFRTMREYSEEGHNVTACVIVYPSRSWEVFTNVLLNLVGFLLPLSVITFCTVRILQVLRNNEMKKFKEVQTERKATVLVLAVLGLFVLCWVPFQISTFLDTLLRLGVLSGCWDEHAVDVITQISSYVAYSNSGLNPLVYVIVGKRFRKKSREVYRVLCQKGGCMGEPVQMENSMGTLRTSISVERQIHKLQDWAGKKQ

[10] = target: T9, Orexin OX1 (Homo sapiens, UniProt O43613); assay: radioligand binding (Table S2); conditions: [125I] Orexin A, Human recombinant CHO cells
T9 construct: host or cells: CHO cells

[11] = target: T10, Acetylcholinesterase (Homo sapiens, UniProt P22303); assay: enzyme assay (Table S2); format: biochemical; conditions: Acetylthiocholine (400 µM), Photometry
T10 construct: Eurofins (assay provider); host or cells: HEK-293 cells

[12] = test system: Kainate; assay: radioligand binding (Table S2); conditions: [3H] Kainic acid, Rat cerebral cortex
[13] = target: Cannabinoid CB2 (Homo sapiens, UniProt P34972); assay: radioligand binding (Table S2); conditions: read-out: % Inhibition @ 10 µM
[14] = target: T11, Prostacyclin IP (PGI2) (Homo sapiens, UniProt P43119); assay: radioligand binding (Table S2); conditions: [3H] Iloprost, Human recombinant HEK-293 cells
T11 construct: host or cells: HEK-293 cells

[15] = target: T12, Histamine H2 (Homo sapiens, UniProt P25021); assay: radioligand binding (Table S2); conditions: [125I] APT, Human recombinant CHO cells
T12 construct: host or cells: CHO cells
T12 sequence (P25021 whole entry): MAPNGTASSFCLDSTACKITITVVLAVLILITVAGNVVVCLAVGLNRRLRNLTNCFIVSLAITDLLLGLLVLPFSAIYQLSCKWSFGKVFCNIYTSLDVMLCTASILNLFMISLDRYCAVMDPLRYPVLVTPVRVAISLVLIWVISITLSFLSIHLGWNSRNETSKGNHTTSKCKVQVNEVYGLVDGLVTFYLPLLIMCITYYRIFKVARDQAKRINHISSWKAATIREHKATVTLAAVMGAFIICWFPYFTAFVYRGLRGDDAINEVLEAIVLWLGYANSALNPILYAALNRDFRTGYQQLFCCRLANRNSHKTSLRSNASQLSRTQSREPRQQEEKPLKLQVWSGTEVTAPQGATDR

T3 sequence (P46663 whole entry): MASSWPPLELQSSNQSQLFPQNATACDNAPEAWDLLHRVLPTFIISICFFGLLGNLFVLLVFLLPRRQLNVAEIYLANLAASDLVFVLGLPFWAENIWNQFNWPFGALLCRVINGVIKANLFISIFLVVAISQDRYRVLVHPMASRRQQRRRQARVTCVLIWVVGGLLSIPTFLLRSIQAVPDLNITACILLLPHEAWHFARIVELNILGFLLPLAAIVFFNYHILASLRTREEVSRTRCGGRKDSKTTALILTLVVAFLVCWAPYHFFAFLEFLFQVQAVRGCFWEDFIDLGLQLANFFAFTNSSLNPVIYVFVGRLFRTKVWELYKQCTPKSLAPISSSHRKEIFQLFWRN
T2 sequence (P29274 whole entry): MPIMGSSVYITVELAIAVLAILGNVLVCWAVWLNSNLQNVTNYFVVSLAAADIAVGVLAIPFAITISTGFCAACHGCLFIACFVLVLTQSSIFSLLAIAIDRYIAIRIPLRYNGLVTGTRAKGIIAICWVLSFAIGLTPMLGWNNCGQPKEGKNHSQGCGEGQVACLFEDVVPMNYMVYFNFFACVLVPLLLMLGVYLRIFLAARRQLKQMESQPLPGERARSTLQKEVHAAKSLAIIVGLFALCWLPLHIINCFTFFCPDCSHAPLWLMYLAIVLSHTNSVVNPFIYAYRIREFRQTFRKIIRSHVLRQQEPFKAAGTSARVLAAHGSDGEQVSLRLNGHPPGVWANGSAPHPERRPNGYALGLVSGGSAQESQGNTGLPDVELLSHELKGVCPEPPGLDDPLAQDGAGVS
T6 sequence (P34969 whole entry): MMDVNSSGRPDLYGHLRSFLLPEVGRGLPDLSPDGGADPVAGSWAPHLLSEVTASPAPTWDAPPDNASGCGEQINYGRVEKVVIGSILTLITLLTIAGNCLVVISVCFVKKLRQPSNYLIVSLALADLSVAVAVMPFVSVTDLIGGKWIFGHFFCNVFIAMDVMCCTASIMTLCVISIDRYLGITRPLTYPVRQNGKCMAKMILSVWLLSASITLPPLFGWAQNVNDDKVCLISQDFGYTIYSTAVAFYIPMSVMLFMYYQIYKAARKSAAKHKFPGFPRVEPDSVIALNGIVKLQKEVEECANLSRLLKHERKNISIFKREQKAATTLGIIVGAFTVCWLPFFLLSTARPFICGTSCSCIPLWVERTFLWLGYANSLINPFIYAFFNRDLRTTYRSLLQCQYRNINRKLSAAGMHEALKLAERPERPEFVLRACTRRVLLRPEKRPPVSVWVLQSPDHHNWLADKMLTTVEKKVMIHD
T10 sequence (P22303 32-614): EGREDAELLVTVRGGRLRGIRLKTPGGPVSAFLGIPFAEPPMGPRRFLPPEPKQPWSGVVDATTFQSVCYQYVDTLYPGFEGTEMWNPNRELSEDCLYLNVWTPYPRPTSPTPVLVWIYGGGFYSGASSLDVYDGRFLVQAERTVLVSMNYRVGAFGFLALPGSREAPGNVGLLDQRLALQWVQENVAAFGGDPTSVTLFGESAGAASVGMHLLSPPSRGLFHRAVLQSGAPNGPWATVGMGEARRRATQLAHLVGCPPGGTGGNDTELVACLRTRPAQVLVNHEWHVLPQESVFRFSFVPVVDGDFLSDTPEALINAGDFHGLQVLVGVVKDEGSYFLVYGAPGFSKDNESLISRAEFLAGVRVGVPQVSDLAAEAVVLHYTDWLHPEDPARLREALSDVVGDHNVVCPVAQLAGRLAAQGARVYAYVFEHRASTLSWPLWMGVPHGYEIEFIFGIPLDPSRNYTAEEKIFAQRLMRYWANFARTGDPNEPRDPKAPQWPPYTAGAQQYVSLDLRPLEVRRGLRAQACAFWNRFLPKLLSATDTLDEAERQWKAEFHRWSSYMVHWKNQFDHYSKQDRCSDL
T7 sequence (Q15722 whole entry): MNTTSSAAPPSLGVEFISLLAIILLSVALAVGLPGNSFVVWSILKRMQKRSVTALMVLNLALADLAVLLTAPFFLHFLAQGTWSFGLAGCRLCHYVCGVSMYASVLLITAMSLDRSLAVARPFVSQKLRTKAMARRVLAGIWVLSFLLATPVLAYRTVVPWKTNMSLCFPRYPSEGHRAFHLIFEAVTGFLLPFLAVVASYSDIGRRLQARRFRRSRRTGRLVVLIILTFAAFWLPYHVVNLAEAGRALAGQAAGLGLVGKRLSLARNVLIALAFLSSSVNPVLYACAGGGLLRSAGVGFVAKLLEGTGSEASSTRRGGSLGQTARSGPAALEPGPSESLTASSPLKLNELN
Muscarinic M4, sequence (P08173 whole entry): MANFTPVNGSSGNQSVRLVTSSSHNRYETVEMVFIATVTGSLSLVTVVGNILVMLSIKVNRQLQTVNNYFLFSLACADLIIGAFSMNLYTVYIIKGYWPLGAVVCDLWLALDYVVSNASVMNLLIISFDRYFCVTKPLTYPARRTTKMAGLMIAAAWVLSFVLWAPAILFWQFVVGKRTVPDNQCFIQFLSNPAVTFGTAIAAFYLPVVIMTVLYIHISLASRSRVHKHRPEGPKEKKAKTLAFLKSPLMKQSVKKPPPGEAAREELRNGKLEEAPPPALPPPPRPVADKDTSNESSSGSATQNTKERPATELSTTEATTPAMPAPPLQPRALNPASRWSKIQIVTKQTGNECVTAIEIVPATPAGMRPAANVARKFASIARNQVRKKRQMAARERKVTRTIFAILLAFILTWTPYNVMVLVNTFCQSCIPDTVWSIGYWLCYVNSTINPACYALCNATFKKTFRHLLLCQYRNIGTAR
Cannabinoid CB2, sequence (P34972 whole entry): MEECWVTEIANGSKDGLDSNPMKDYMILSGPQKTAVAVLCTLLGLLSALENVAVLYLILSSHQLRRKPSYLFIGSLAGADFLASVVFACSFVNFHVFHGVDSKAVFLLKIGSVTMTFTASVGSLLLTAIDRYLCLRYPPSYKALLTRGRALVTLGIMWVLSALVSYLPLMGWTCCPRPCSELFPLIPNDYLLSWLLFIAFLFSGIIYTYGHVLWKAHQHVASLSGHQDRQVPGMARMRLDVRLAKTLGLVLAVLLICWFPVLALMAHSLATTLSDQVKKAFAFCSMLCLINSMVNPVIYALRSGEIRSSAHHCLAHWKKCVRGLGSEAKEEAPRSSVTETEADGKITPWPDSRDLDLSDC
T9 sequence (O43613 whole entry): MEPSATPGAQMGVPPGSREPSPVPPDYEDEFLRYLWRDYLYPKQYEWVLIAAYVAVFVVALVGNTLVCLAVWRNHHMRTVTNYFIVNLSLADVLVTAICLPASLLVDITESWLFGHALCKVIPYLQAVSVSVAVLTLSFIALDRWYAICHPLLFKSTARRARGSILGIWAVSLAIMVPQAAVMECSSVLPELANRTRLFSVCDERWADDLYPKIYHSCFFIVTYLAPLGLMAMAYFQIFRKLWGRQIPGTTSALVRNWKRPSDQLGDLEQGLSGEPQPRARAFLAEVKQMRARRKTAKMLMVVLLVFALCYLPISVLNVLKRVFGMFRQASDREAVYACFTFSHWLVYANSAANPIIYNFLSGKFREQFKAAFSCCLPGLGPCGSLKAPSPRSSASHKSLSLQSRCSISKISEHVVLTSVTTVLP
T11 sequence (P43119 whole entry): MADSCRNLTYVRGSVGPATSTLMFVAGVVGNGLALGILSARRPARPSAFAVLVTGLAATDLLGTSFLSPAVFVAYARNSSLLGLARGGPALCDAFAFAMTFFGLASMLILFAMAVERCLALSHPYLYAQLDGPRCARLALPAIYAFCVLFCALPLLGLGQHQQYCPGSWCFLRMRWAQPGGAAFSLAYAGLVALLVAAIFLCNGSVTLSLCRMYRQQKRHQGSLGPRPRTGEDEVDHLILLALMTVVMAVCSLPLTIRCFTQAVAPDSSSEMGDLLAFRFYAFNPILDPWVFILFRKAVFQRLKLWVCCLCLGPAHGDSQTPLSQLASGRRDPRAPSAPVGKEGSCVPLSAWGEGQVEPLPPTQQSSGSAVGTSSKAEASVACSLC

Cc1cc(-c2ncnn2C)c2cccc(OCc3c(Cl)cc(F)cc3[C@H](C)NC(=O)COC(F)F)c2n1 [Compound 3, (S)-N-(1-(3-chloro-5-fluoro-2-((2-methyl-4-(1-methyl-1H-1,2,4-triazol-5-yl)quinolin-8-yloxy)methyl)phenyl)ethyl)-2-(difluoromethoxy)acetamide]
IC50 [1]: 1030 nM | Kb [1]: 147 nM | inhibition at 10 µM [2]: 9.8% | inhibition at 10 µM [3]: 0.5% | inhibition at 10 µM [4]: -1.3% | inhibition at 10 µM ([5]; CHO, read-out: % inhibition of reference agonist response @ 10 µM (antagonist effect), IB-MECA (10 nM)): 8.5% | % of reference agonist response @ 10 µM (agonist effect) ([5]; reference IB-MECA (100 nM)): 10.5% | % Inhibition @ 10 µM [6]: 21% | inhibition at 10 µM [6]: 21.2% | inhibition at 10 µM [7]: 3.3% | inhibition at 10 µM [8]: 16.7% | IC50 [9]: ~1200 nM | Kb [9]: ~350 nM | inhibition at 10 µM [10]: 7.1% | inhibition at 10 µM [11]: 8.4% | % Inhibition @ 10 µM [12]: -4.4% | inhibition at 10 µM [13]: -17.7% | inhibition at 10 µM [14]: -5% | inhibition at 10 µM [15]: -26.5%
